Reference: US7265120B2, “Pyrazine derivatives and pharmaceutical use thereof” (Astellas Pharma Inc., priority 2004, dated 2007)

Row | SMILES | melting point
1 | Cn1nc(-c2nc(N3CCN4CCCC4C3)c(N)nc2-c2ccccc2)ccc1=O (stereo not drawn) [Example 131, 6-[5-amino-6-(hexahydropyrrolo[1,2-a]pyrazin-2(1H)-yl)-3-phenyl-2-pyrazinyl]-2-methyl-3(2H)-pyridazinone] | 177 to 179 °C
2 | CC(C)n1nc(-c2nc(-c3ccsc3)c(N)nc2-c2ccccc2)ccc1=O [Example 79, 6-[5-amino-3-phenyl-6-(3-thienyl)-2-pyrazinyl]-2-isopropyl-3(2H)-pyridazinone] | 228 to 230 °C
3 | CC(C)n1nc(-c2ncc(N)nc2-c2ccccc2Br)ccc1=O [Example 199, 6-[5-amino-3-(2-bromophenyl)-2-pyrazinyl]-2-isopropyl-3(2H)-pyridazinone] | 189 to 191 °C
4 | CC(C)n1nc(-c2nc(-n3cccc3)c(N)nc2-c2ccccc2)ccc1=O [Example 147, 6-[5-amino-3-phenyl-6-(1H-pyrrol-1-yl)-2-pyrazinyl]-2-isopropyl-3(2H)-pyridazinone] | 132 to 136 °C
5 | CC(C)n1nc(-c2[nH]c(=O)c(N)nc2-c2ccccc2)ccc1=O [Example 174, 6-(5-amino-6-oxo-3-phenyl-1,6-dihydro-2-pyrazinyl)-2-isopropyl-3(2H)-pyridazinone] | > 250 °C
6 | CC(C)n1nc(-c2nc(-c3ccccc3)c(N)nc2-c2ccccc2)ccc1=O [Example 78, 6-(5-amino-3,6-diphenyl-2-pyrazinyl)-2-isopropyl-3(2H)-pyridazinone] | 225 to 226 °C
7 | CC(C)n1nc(-c2nc(C(N)=O)c(N)nc2-c2ccccc2Br)ccc1=O [Example 190, 3-amino-5-(2-bromophenyl)-6-(1-isopropyl-6-oxo-1,6-dihydro-3-pyridazinyl)-2-pyrazinecarboxamide] | 132 to 135 °C
8 | Cn1nc(-c2nc(NCCCc3ccccc3)c(N)nc2-c2ccccc2)ccc1=O [Example 126, 6-{5-amino-3-phenyl-6-[(3-phenylpropyl)amino]-2-pyrazinyl}-2-methyl-3(2H)-pyridazinone] | 196 to 197.5 °C
9 | CC(C)n1nc(-c2nc(Oc3ccc(F)cc3)c(N)nc2-c2ccccc2)ccc1=O [Example 158, 6-[5-amino-6-(4-fluorophenoxy)-3-phenyl-2-pyrazinyl]-2-isopropyl-3(2H)-pyridazinone] | 173 to 175 °C
10 | COc1ccc(CNc2nc(-c3ccccc3)c(-c3ccc(=O)n(C(C)C)n3)nc2C#N)cc1 [Example 47, 6-(1-isopropyl-6-oxo-1,6-dihydro-3-pyridazinyl)-3-[(4-methoxybenzyl)amino]-5-phenyl-2-pyrazinecarbonitrile] | 89 to 93 °C
11 | CC(C)n1nc(-c2nc(C#N)c(C#N)nc2-c2ccccc2Br)ccc1=O [Example 195, 5-(2-bromophenyl)-6-(1-isopropyl-6-oxo-1,6-dihydro-3-pyridazinyl)-2,3-pyrazinedicarbonitrile] | 159.5 to 161 °C
12 | COc1ccc(CNc2cnc(-c3ccccc3)c(-c3ccc(=O)n(C(C)C)n3)n2)cc1 [Example 49, 2-isopropyl-6-{6-[(4-methoxybenzyl)amino]-3-phenyl-2-pyrazinyl}-3(2H)-pyridazinone] | 173 to 174 °C
13 | CCn1nc(-c2nc(C(=O)O)c(NCc3ccc(OC)cc3)nc2-c2ccccc2)ccc1=O [Example 57, 6-(1-ethyl-6-oxo-1,6-dihydro-3-pyridazinyl)-3-[(4-methoxybenzyl)amino]-5-phenyl-2-pyrazinecarboxylic acid] | > 250 °C
14 | CC(C)n1nc(-c2nc(NCCc3ccccc3)c(N)nc2-c2ccccc2)ccc1=O [Example 135, 6-{5-amino-3-phenyl-6-[(2-phenylethyl)amino]-2-pyrazinyl}-2-isopropyl-3(2H)-pyridazinone] | 204.5 to 207 °C
15 | Cn1nc(-c2nc(-n3ccnc3)c(N)nc2-c2ccccc2)ccc1=O [Example 154, 6-[5-amino-6-(1H-imidazol-1-yl)-3-phenyl-2-pyrazinyl]-2-methyl-3(2H)-pyridazinone] | > 250 °C
16 | Cn1nc(-c2nc(-c3cccs3)c(N)nc2-c2ccccc2)ccc1=O [Example 86, 6-[5-amino-3-phenyl-6-(2-thienyl)-2-pyrazinyl]-2-methyl-3(2H)-pyridazinone] | 177 °C (dec.)
17 | CC(C)n1nc(-c2nc(O)cnc2-c2ccccc2)ccc1=O [Example 68, 6-(6-hydroxy-3-phenyl-2-pyrazinyl)-2-isopropyl-3(2H)-pyridazinone] | 198 to 200 °C
18 | Cn1nc(-c2nc(NCCNc3ccccc3)c(N)nc2-c2ccccc2)ccc1=O [Example 123, 6-{5-amino-6-[(2-anilinoethyl)amino]-3-phenyl-2-pyrazinyl}-2-methyl-3(2H)-pyridazinone] | 181 to 183 °C
19 | Cn1nc(-c2nc(NCCN3CCCCC3)c(N)nc2-c2ccccc2)ccc1=O [Example 121, 6-(5-amino-3-phenyl-6-{[2-(1-piperidinyl)ethyl]amino}-2-pyrazinyl)-2-methyl-3(2H)-pyridazinone] | 155 to 157 °C
20 | CC(C)n1nc(-c2nc(N)c(C#N)nc2-c2ccccc2Br)ccc1=O [Example 197, 3-amino-6-(2-bromophenyl)-5-(1-isopropyl-6-oxo-1,6-dihydro-3-pyridazinyl)-2-pyrazinecarbonitrile] | 241 to 243 °C
21 | COCCNc1nc(-c2ccc(=O)n(C)n2)c(-c2ccccc2)nc1N [Example 120, 6-{5-amino-6-[(2-methoxyethyl)amino]-3-phenyl-2-pyrazinyl}-2-methyl-3(2H)-pyridazinone] | 231 to 232.5 °C
22 | CN(C)c1nc(-c2ccc(=O)n(C)n2)c(-c2ccccc2)nc1N [Example 144, 6-[5-amino-6-(dimethylamino)-3-phenyl-2-pyrazinyl]-2-methyl-3(2H)-pyridazinone] | 150 to 152 °C
23 | Cn1nc(-c2nc(C(N)=O)c(N)nc2-c2ccccc2)ccc1=O [Example 18, 3-Amino-6-(1-methyl-6-oxo-1,6-dihydro-3-pyridazinyl)-5-phenyl-2-pyrazinecarboxamide] | > 250 °C
24 | CC(C)n1nc(-c2nc(Br)c(N=O)nc2-c2ccccc2)ccc1=O [Example 67, 6-(6-bromo-5-nitroso-3-phenyl-2-pyrazinyl)-2-isopropyl-3(2H)-pyridazinone] | 164 to 166 °C

Further lines, results first:

Row | melting point | SMILES
25 | 120 to 122 °C | CC(C)n1nc(-c2nc(OCCOCc3ccccc3)c(N)nc2-c2ccccc2)ccc1=O [Example 168, 6-{5-amino-6-[2-(benzyloxy)ethoxy]-3-phenyl-2-pyrazinyl}-2-isopropyl-3(2H)-pyridazinone]
26 | 133 to 135 °C | COCOCC#Cc1nc(-c2ccc(=O)n(C(C)C)n2)c(-c2ccccc2)nc1N [Example 71, 6-{5-amino-6-[3-(methoxymethoxy)-1-propyn-1-yl]-3-phenyl-2-pyrazinyl}-2-isopropyl-3(2H)-pyridazinone]
27 | 233 to 235 °C | CC(C)n1nc(-c2nc(C(=O)O)c(N)nc2-c2ccccc2)ccc1=O [Example 8, 3-amino-6-(1-isopropyl-6-oxo-1,6-dihydro-3-pyridazinyl)-5-phenyl-2-pyrazinecarboxylic acid]
28 | 221 to 225 °C | CC(=O)N1CCN(c2nc(-c3ccc(=O)n(C(C)C)n3)c(-c3ccccc3)nc2N)CC1 [Example 117, 6-[6-(4-acetyl-1-piperazinyl)-5-amino-3-phenyl-2-pyrazinyl]-2-isopropyl-3(2H)-pyridazinone]
29 | 208 to 209.5 °C | Cc1nc(-c2ccc(=O)n(C(C)C)n2)c(-c2ccccc2)nc1N [Example 3, 6-(5-amino-6-methyl-3-phenyl-2-pyrazinyl)-2-isopropyl-3(2H)-pyridazinone]
30 | 220 to 222 °C | CC(C)n1nc(-c2nc(N3CCC(NS(C)(=O)=O)CC3)c(N)nc2-c2ccccc2)ccc1=O [Example 111, N-{1-[3-amino-6-(1-isopropyl-6-oxo-1,6-dihydro-3-pyridazinyl)-5-phenyl-2-pyrazinyl]-4-piperidinyl}methanesulfonamide]
31 | 234 to 236.5 °C | CC(=O)c1nc(-c2ccc(=O)n(C(C)C)n2)c(-c2ccccc2)nc1N [Example 94, 6-(6-acetyl-5-amino-3-phenyl-2-pyrazinyl)-2-isopropyl-3(2H)-pyridazinone]
32 | 249 to 251 °C | CC(C)n1nc(-c2nc(S(C)(=O)=O)c(N)nc2-c2ccccc2)ccc1=O [Example 55, 6-[5-amino-6-(methylsulfonyl)-3-phenyl-2-pyrazinyl]-2-isopropyl-3(2H)-pyridazinone]
33 | 209 to 211 °C | CC(C)n1nc(-c2nc(C3=CCN(C)CC3)c(N)nc2-c2ccccc2)ccc1=O
34 | 139 to 143 °C | CC(C)n1nc(-c2nc(OCCN3CCOCC3)c(N)nc2-c2ccccc2)ccc1=O [Example 172, 6-{5-amino-6-[2-(4-morpholinyl)ethoxy]-3-phenyl-2-pyrazinyl}-2-isopropyl-3(2H)-pyridazinone]
35 | 161 to 163 °C | CC(C)n1nc(-c2nc(OC3CCCCC3)c(N)nc2-c2ccccc2)ccc1=O [Example 161, 6-[5-amino-6-(cyclohexyloxy)-3-phenyl-2-pyrazinyl]-2-isopropyl-3(2H)-pyridazinone]
36 | 212 to 214.5 °C | CC(C)n1nc(-c2nc(N3CCOCC3)c(N)nc2-c2ccccc2)ccc1=O [Example 140, 6-[5-amino-6-(4-morpholinyl)-3-phenyl-2-pyrazinyl]-2-isopropyl-3(2H)-pyridazinone]
37 | 198 to 200 °C | CC(C)Oc1nc(-c2ccc(=O)n(C(C)C)n2)c(-c2ccccc2)nc1N [Example 160, 6-(5-amino-6-isopropoxy-3-phenyl-2-pyrazinyl)-2-isopropyl-3(2H)-pyridazinone]
38 | 179 to 181 °C | CC(C)n1nc(-c2nc(OC3CCN(Cc4ccccc4)C3)c(N)nc2-c2ccccc2)ccc1=O (stereo not drawn) [Example 176, 6-{5-amino-6-[(1-benzyl-3-pyrrolidinyl)oxy]-3-phenyl-2-pyrazinyl}-2-isopropyl-3(2H)-pyridazinone]
39 | 105 to 106.5 °C | CC(C)n1nc(-c2nc(OCCCc3ccccc3)c(N)nc2-c2ccccc2)ccc1=O [Example 175, 6-[5-amino-3-phenyl-6-(3-phenylpropoxy)-2-pyrazinyl]-2-isopropyl-3(2H)-pyridazinone]
